Source: ChEMBL document CHEMBL1201862, “PubChem BioAssay data set” (2004)
Activity calls are given as the source filed them.

How the values were obtained:
[1] = inhibitors of Bluetongue virus cytopathic effect, confirmation, arbovirus, BSR cells (AID 1250); assay type: functional;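 further: protection from viral cytopathic effect measured as cell viability by ATP luminescence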
[2] = tested on: Streptococcus; test: Group A Streptococcus viability loss, dose response, counter-screen for streptokinase expression inhibitor project, luminescence, BacTiterGlo (AID 1915); assay type: functional, organism-based;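 further: potency for reduction of bacterial viability or growth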
[3] = tested on: Streptococcus sp. 'group A'; test: growth inhibition of control SK(-) GAS strain, dose response, counter-screen for streptokinase expression inhibitor project, luminescence, kanamycin, BacTiterGlo, confirmation (AID 1900); assay type: functional, organism-based
[4] = cytotoxicity in KRAS-transformed pancreatic duct cells, primary screen, cell-based, fluorescence, HTS (AID 431); assay type: functional; conditions: Homo sapiens;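 further: cell line used: HPDE-C7K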
[5] = cytotoxicity in HPDE-C7 cells, cell-based, fluorescence, HTS (AID 430); assay type: functional; conditions: Homo sapiens
[6] = Vero cell cytotoxicity, dose response, cytotoxicity control for Vif-APOBEC3G degradation inhibitor project, Vero cells (AID 1117358); assay type: functional; conditions: Human immunodeficiency virus 1, Vero
[7] = inhibitors of SNCA 5'UTR-driven reporter translation, confirmation, H4 neuroglioma cells, luminescence (AID 1988); assay type: functional, cell-based
[8] = Luminescence Cell-Based Dose Response HTS to Identify Inhibitors of 5'UTR Stem-Loop Driven Prion Protein mRNA Translation in H4 Neuroglioblastoma Cells. [Related pubchem assays: 1827 (Project Summary), 1813 (Primary HTS)]; assay type: functional
[9] = target: NS3 (Hepatitis C virus, UniProt A3EZJ3); test: PubChem AID 2173; design: species or system Hepacivirus hominis
[10] = inhibitors of firefly luciferase expression or activity, dose response, H4 neuroglioma cells, luminescence (AID 1990); assay type: functional, cell-based
[11] = target: T1, Streptokinase A (Streptococcus pyogenes serotype M1, UniProt P10520); test: S. pyogenes streptokinase expression inhibitors, potency, dose response, plasminogen activation absorbance, OD405 (AID 1914); assay type: functional, Streptococcus pyogenes M1 GAS;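 further: secreted streptokinase activity via plasminogen activation per viability signal from cell pellet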
T1 sequence (P10520 whole entry): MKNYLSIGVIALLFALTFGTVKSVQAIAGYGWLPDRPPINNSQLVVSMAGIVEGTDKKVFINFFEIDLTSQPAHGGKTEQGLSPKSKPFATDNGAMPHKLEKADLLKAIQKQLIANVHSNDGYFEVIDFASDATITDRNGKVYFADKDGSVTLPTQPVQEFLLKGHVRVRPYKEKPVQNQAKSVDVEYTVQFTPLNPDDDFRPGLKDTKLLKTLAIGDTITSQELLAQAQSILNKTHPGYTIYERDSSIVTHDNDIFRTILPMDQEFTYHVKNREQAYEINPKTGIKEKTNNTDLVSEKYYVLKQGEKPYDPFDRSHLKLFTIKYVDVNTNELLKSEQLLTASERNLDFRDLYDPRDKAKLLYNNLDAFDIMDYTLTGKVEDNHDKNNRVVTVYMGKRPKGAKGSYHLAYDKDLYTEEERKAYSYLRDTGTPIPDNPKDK

[12] = target: Paired box protein Pax-8 (Homo sapiens, UniProt Q06710); test: inhibitors of PAX8-driven TPO luciferase reporter, dose response, RMG-I cells, cherry-pick (AID 687027); assay type: functional, cell-based;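 further: luciferase reporter driven by Pax8 target thyroperoxidase promoter measured by SteadyGlo luminescence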
[13] = target: T2, Sphingosine 1-phosphate receptor 1 (Homo sapiens, UniProt P21453); test: Late stage counterscreen assay for S1P4 antagonists: Fluorescence dose response cell-based screening assay for antagonists of the Sphingosine 1-Phosphate Receptor 1 (S1P1). [Related pubchem assays (depositor defined):AID1510, AID1524, AID1692, AID1853, AID2332, AID489009, AID489017]; assay type: functional
[14] = target: T3, Sphingosine 1-phosphate receptor 4 (Homo sapiens, UniProt O95977); test: Fluorescence dose response cell-based high throughput screening assay for antagonists of the Sphingosine 1-Phosphate Receptor 4 (S1P4). [Related pubchem assays: 1524 (Confirmation in triplicates.), 1510 (Primary screen.)]; assay type: functional
T3 sequence (O95977 whole entry): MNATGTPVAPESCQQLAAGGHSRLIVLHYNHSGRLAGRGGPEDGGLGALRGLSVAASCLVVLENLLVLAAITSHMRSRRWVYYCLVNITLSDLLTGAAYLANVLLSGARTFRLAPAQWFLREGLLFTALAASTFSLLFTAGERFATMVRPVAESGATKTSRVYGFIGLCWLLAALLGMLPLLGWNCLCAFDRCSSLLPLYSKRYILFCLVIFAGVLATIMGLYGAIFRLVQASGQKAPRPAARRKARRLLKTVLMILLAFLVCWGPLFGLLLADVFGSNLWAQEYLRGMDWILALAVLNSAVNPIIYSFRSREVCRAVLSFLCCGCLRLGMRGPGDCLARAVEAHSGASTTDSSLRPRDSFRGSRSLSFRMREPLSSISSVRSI

[15] = inhibitors of intracellular T. cruzi replication, confirmation, NIH3T3 host cells, beta-gal luminescence (AID 2044); assay type: functional, cell-based;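 further: intracellular parasites grown in NIH/3T3 mouse fibroblasts as host cells; luminescent beta-galactosidase reporter signal from transgenic T. cruzi replicating inside host cells; inhibitors lower the luminescence signal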
[16] = target: Sphingosine 1-phosphate receptor 3 (Homo sapiens, UniProt Q99500); test: Late stage counterscreen assay for S1P4 antagonists: Fluorescence dose response cell-based screening assay for antagonists of the Sphingosine 1-Phosphate Receptor 3 (S1P3). [Related pubchem assays (depositor defined):AID1510, AID1524, AID1692, AID1853, AID2332, AID489009, AID489017]; assay type: functional
[17] = Shn3 3'UTR reporter inhibitors, dose response, cell-based, Clone20 osteoblasts, firefly luciferase, cherry-picked (AID 624132); assay type: functional;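 further: firefly luciferase luminescence from reporter carrying the Shn3 3'UTR in osteoblasts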
[18] = target: Sphingosine 1-phosphate receptor 2 (Homo sapiens, UniProt O95136); test: Late stage counterscreen assay for S1P4 antagonists: Fluorescence dose response cell-based screening assay for antagonists of the Sphingosine 1-Phosphate Receptor 2 (S1P2). [Related pubchem assays (depositor defined):AID1510, AID1524, AID1692, AID1853, AID2332, AID489009, AID489017]; assay type: functional
[19] = target: T3, Sphingosine 1-phosphate receptor 4; test: Late stage fluorescence dose response cell-based screening assay for antagonists of the Sphingosine 1-Phosphate Receptor 4 (S1P4). [Related pubchem assays: 1524 (Confirmation screen (S1P4 antagonists).), 1510 (Primary screen (S1P4 antagonists).), 1853 (Summary AID (S1P4 antagonists).), 1692 (Dose response screen (S1P4 antagonists).)]; assay type: functional
[20] = target: Sphingosine 1-phosphate receptor 5 (Homo sapiens, UniProt Q9H228); test: Late stage counterscreen assay for S1P4 antagonists: Fluorescence dose response cell-based screening assay for antagonists of the Sphingosine 1-Phosphate Receptor 5 (S1P5). [Related pubchem assays (depositor defined):AID1510, AID1524, AID1692, AID1853, AID2332, AID489009, AID489017]; assay type: functional
[21] = cytotoxicity toward NIH3T3 fibroblasts, dose response, counter-screen, cell-based, ATP luminescence, mouse fibroblasts (AID 2010); assay type: functional;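 further: cells exposed to compound for about 90 hours before reading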
[22] = HepG2 cell cytotoxicity, dose response, cytotoxicity control for Shn3 inhibitor project, CellTiter-Glo, cherry-picked (AID 624134); assay type: functional, cell-based
[23] = target: T2, Sphingosine 1-phosphate receptor 1; assay type: functional
[24] = target: T4, Microphthalmia-associated transcription factor (Homo sapiens, UniProt O75030); test: TRPM1 promoter luciferase signal decrease, dose response, MITF inhibitor project, cell-based, SK-MEL-5, cherry-picked, set 3 (AID 493073); assay type: functional
T4 sequence (O75030 whole entry): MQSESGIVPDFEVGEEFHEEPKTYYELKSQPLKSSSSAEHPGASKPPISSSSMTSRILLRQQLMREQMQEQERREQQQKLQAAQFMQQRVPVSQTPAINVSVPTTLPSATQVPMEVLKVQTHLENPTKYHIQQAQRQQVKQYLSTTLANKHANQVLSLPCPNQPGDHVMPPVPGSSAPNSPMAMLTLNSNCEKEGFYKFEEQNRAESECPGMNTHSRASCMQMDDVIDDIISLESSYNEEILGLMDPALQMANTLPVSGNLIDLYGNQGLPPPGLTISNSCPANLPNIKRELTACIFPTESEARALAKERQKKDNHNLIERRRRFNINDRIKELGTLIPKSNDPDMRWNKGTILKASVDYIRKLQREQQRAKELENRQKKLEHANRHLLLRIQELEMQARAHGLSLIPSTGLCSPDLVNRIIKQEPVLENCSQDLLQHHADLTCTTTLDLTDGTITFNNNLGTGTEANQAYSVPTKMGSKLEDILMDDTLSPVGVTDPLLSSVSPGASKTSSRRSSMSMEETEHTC

[25] = target: T5, Protein skinhead-1 (Caenorhabditis elegans, UniProt P34707); assay type: functional
T5 sequence (P34707 whole entry): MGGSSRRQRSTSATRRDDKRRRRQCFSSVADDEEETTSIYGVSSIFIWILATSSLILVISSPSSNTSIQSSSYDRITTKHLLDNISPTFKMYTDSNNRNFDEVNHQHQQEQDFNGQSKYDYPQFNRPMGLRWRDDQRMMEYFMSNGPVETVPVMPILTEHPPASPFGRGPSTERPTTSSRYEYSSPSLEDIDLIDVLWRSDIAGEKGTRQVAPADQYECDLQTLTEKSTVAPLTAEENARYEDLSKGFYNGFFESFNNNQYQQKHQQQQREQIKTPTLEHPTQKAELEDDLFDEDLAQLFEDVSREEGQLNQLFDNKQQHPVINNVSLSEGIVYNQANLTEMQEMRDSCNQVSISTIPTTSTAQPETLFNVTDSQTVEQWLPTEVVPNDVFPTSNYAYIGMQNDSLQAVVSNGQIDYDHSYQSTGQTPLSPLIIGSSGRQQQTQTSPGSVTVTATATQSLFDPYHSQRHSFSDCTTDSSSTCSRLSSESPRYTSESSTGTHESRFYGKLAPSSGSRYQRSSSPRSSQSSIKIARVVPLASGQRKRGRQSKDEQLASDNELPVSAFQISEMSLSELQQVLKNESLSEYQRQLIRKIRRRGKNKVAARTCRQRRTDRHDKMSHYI

[26] = Luminescence-based counterscreen assay for KLF5 inhibitors: dose response cell-based high throughput screening assay to identify cytotoxic compounds using the IEC-6 intestinal epithelial cell line. [Related pubchem assays: 1700 (Primary screen.), 1834 (Confirmation screen.), 1858 (Summary AID.), 1905 (Counterscreen.)]; assay type: functional
[27] = reduction of Shn3 3'UTR firefly luciferase signal, dose response, Schnurri-3 inhibitor project, cell-based, Clone20 osteoblasts, cherry-pick, set 2 (AID 720490); assay type: functional;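 further: actives lower the luminescence signal as inhibitors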
[28] = target: Photoreceptor-specific nuclear receptor (Homo sapiens, UniProt Q9Y5X4); assay type: functional, cell-based;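 further: CHO-S cells with Gal4-NCOR and VP16-NR2E3 two-hybrid luciferase reporter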
[29] = target: Muscarinic acetylcholine receptor M1 (Rattus norvegicus, UniProt P08482); test: Discovery of novel allosteric modulators of the M1 muscarinic receptor: Agonist NMS binding at M1. [Related pubchem assays: 626 ]
[30] = target: Muscarinic acetylcholine receptor M4 (Rattus norvegicus, UniProt P08485); test: Discovery of novel allosteric modulators of the M1 muscarinic receptor: Agonist NMS competition at M4. [Related pubchem assays: 626, 1488, 1741 ]; assay type: functional
[31] = target: Muscarinic acetylcholine receptor M3 (Homo sapiens, UniProt P20309); test: Discovery of novel allosteric modulators of the M1 muscarinic receptor: Agonist NMS competition at M3. [Related pubchem assays: 1488 (Discovery of novel allosteric modulators of the M1 muscarinic receptor: Agonist Confirmation Assay), 626 (Discovery of Novel Allosteric Modulators of the M1 Muscarinic Receptor: Agonist Primary Screen)]; assay type: functional
[32] = target: Muscarinic acetylcholine receptor M5 (Homo sapiens, UniProt P08912); test: Discovery of novel allosteric modulators of the M1 muscarinic receptor: Agonist NMS competition at M5. [Related pubchem assays: 1488 (Discovery of novel allosteric modulators of the M1 muscarinic receptor: Agonist Confirmation Assay), 626 (Discovery of Novel Allosteric Modulators of the M1 Muscarinic Receptor: Agonist Primary Screen)]; assay type: functional
[33] = target: Muscarinic acetylcholine receptor M2 (Homo sapiens, UniProt P08172); test: Discovery of novel allosteric modulators of the M1 muscarinic receptor: Agonist NMS competition at M2. [Related pubchem assays: 626 (Discovery of Novel Allosteric Modulators of the M1 Muscarinic Receptor: Agonist Primary Screen), 1488 (Discovery of novel allosteric modulators of the M1 muscarinic receptor: Agonist Confirmation Assay)]; assay type: functional
Sequence of Muscarinic acetylcholine receptor M2 (P08172 whole entry): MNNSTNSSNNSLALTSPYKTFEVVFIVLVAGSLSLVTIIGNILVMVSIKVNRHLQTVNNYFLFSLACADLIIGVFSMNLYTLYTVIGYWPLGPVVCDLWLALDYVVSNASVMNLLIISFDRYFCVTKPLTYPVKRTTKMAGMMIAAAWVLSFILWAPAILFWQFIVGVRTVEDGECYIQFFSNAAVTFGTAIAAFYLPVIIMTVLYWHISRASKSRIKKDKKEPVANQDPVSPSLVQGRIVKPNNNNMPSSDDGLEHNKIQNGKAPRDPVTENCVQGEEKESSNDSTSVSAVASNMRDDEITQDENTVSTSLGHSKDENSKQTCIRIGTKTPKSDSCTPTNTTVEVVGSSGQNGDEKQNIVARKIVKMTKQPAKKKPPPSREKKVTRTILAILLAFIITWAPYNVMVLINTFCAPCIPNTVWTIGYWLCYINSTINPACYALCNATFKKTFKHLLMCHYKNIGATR

T2 sequence (P21453 whole entry): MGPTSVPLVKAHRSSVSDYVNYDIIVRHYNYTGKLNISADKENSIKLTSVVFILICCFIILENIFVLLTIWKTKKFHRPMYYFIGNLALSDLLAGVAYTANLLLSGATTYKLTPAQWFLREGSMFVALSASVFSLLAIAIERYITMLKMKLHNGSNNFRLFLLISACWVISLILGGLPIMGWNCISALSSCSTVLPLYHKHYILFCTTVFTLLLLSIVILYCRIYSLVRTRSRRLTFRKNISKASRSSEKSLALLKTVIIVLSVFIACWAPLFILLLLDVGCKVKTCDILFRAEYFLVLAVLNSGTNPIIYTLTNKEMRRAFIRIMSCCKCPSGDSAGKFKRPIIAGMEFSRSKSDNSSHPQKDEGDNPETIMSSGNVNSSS
Sequence of Sphingosine 1-phosphate receptor 5 (Q9H228 whole entry): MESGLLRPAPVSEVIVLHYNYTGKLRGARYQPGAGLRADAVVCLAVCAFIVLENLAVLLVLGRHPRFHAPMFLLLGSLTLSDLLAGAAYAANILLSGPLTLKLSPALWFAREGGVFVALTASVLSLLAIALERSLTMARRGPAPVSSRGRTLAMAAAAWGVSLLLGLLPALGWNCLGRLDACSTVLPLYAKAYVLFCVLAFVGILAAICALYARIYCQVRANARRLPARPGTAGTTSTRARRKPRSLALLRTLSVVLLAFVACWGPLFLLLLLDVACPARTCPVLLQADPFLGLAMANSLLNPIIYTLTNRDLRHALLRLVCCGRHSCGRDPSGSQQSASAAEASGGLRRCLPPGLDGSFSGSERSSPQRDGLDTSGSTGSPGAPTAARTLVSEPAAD
Sequence of Muscarinic acetylcholine receptor M1 (P08482 whole entry): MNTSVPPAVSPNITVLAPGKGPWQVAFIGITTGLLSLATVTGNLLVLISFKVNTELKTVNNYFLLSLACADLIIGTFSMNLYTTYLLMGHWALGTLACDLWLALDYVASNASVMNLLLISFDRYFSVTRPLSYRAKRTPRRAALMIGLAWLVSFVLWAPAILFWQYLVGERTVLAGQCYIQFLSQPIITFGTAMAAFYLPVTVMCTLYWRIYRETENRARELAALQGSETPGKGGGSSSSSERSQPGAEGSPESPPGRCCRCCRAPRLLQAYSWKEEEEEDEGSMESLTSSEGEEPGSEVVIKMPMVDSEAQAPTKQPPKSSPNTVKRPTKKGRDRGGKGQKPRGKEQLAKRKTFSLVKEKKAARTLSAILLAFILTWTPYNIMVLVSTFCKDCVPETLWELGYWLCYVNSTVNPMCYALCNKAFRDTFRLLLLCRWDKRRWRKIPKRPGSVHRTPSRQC
Sequence of Paired box protein Pax-8 (Q06710 whole entry): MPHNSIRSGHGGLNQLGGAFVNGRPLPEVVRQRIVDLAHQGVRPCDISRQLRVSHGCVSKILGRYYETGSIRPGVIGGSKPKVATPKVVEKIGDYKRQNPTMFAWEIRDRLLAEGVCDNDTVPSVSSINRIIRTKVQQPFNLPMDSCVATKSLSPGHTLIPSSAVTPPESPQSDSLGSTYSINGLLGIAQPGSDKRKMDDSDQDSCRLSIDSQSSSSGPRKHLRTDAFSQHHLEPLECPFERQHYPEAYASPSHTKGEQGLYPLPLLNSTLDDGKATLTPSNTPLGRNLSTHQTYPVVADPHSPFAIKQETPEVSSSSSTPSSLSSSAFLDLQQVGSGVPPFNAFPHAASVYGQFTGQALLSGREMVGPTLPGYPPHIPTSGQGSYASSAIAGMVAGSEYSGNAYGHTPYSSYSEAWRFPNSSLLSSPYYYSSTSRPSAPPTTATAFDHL
Sequence of Sphingosine 1-phosphate receptor 2 (O95136 whole entry): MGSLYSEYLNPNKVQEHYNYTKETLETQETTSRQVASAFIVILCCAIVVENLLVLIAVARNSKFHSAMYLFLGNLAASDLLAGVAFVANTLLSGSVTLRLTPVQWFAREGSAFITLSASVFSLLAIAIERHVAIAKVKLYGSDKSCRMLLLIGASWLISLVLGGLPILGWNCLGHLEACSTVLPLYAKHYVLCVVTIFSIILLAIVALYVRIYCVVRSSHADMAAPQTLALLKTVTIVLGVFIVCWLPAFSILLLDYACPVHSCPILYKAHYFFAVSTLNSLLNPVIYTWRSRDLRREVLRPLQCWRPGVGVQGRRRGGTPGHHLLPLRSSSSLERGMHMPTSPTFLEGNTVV
Sequence of Muscarinic acetylcholine receptor M5 (P08912 whole entry): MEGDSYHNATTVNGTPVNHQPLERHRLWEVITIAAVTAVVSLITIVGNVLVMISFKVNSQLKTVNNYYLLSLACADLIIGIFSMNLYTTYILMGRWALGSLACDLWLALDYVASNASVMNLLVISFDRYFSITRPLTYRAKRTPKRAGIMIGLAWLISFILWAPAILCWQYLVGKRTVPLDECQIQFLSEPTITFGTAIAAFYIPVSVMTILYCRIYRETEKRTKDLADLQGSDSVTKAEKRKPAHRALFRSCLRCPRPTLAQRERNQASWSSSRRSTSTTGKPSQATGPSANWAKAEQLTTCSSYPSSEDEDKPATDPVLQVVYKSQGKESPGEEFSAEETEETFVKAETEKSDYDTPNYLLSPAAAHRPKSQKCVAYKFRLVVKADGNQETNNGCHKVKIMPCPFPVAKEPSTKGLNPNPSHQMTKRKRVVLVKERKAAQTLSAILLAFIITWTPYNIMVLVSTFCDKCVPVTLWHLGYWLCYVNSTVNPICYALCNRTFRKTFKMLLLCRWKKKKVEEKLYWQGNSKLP
Sequence of Muscarinic acetylcholine receptor M4 (P08485 whole entry): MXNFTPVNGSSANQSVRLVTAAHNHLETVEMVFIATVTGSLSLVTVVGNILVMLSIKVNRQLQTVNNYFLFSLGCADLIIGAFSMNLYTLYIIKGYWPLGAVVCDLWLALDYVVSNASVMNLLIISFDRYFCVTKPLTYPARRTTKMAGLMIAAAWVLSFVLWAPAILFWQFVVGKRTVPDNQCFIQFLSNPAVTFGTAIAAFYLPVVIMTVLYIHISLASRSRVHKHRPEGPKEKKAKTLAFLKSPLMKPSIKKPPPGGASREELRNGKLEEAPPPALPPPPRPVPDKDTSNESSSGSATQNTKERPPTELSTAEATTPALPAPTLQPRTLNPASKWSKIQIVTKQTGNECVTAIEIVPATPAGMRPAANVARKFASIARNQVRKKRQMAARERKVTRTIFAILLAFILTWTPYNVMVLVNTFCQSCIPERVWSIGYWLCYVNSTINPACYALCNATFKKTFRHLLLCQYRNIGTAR
Sequence of Sphingosine 1-phosphate receptor 3 (Q99500 whole entry): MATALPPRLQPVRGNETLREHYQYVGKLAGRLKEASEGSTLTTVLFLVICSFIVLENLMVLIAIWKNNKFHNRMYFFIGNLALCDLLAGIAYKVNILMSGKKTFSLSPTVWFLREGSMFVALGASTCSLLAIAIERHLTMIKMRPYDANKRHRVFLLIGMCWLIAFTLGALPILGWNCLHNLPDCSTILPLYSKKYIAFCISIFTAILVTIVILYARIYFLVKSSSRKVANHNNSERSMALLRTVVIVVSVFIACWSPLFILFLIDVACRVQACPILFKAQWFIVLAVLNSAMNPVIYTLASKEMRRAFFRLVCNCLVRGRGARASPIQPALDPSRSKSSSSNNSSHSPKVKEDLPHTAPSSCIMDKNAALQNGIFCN
Sequence of Photoreceptor-specific nuclear receptor (Q9Y5X4 whole entry, the tested form may be a part): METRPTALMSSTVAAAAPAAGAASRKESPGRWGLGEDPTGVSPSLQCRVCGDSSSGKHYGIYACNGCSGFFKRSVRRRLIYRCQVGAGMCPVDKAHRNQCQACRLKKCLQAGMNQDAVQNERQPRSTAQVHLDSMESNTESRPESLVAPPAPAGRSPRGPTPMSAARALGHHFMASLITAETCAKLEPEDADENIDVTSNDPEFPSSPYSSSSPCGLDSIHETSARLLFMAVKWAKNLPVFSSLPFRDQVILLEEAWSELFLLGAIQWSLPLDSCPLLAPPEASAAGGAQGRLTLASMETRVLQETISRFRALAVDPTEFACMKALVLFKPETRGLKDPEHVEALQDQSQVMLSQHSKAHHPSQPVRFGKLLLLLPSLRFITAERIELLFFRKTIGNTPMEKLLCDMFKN
Sequence of NS3 (A3EZJ3 whole entry): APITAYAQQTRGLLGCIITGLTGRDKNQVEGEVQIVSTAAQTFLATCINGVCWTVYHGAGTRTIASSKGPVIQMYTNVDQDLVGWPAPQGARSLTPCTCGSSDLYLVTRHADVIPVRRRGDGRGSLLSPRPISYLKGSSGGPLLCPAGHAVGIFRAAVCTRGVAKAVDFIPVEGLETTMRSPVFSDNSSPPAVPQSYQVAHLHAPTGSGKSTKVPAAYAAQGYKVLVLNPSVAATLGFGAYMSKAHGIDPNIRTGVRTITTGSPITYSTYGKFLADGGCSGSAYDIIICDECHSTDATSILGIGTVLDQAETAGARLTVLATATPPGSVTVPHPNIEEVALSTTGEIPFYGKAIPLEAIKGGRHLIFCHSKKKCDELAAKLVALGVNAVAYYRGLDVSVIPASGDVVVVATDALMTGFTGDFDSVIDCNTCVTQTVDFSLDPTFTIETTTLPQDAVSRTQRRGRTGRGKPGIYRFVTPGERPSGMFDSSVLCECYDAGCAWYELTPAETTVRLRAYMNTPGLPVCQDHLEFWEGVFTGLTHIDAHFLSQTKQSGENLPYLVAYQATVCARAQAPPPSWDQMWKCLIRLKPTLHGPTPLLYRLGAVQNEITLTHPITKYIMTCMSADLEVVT

Structure (SMILES): CCOC(=O)C1=Nc2ccccc2C1=[N+]=[N-]
- IC50 [1]: 21.4 µM (active)
- EC50 [2]: 2.27 µM (active)
- EC50 [3]: 0.379 µM (active)
- EC50 [4]: 7.83 µM (active)
- EC50 [5]: 19.9 µM (active)

Structure (SMILES): O=c1c2c(-c3ccco3)csc2nc(SCc2cn3cccnc3n2)n1-c1ccccc1
- CC50 [6]: > 40 µM (active)
- EC50 [7]: 38.5 µM (active)
- EC50 [8]: > 120 µM (not active)
- IC50 [9]: 49.7 µM (not active)
- EC50 [10]: 13.9 µM (active)

Structure (SMILES): O=C(Nc1ccccc1)Nc1cc(OCC(F)(F)F)cc(OCC(F)(F)F)c1
- EC50 [11]: 18.1 µM (active)
- EC50 [2]: 9.63 µM (active)
- AC50 [12]: 6.93 µM (active)
- IC50 [13]: > 25 µM (inactive)
- IC50 [14]: 0.26 µM (active)
- EC50 [15]: 0.719 µM (active)
- IC50 [16]: 1.68 µM (active)
- EC50 [3]: 4.56 µM (active)
- AC50 [17]: 6.4 µM (active)
- EC50 [7]: 6.09 µM (active)
- IC50 [18]: 2.35 µM (active)
- IC50 [19]: 0.0827 µM (active)
- EC50 [8]: 7.18 µM (active)
- EC50 [10]: 6.81 µM (active)
- IC50 [20]: 1.3 µM (active)
- EC50 [21]: < 6 µM (inconclusive)
- AC50 [22]: 6.97 µM (active)
- IC50 [23]: > 49.8 µM (not active)

Structure (SMILES): CC(C)(C)C(=O)Nc1cc2nn(-c3ccccc3)nc2cc1Cl
- AC50 [24]: 0.495 µM (active)
- IC50 [25]: > 100 µM (inactive)
- AC50 [17]: 5.16 µM (active)
- IC50 [26]: > 39.8 µM (not active)
- AC50 [27]: 49.5 µM (active)
- IC50 [28]: 0.152 µM (active)
- AC50 [22]: > 70 µM (inactive)

Structure (SMILES): CCOC(=O)N1CCC(NCCNC(=O)c2ccccc2C)CC1
- EC50 [29]: 25.1 µM (inconclusive)
- EC50 [30]: 240 µM (inconclusive)
- EC50 [31]: 360 µM (inconclusive)
- EC50 [32]: 24.1 µM (inconclusive)
- EC50 [33]: 95.7 µM (inconclusive)
